The text below walks through data of patent US20220195462A1, “FULLY-HUMAN POST-TRANSLATIONALLY MODIFIED ANTIBODY THERAPEUTICS” (REGENXBIO INC., priority 2019, published 2022).

The test system of experiment [1] is carrageenan-induced paw edema in mice. The experiment is described as follows: Carrageenan paw edema model in mice. The format is in vivo, mouse. The conditions noted are these: C57BL/6 mice, compared with vehicle control group. The source says:
Inflammation models induced by carrageenan are frequently used acute inflammation models. Carrageenan (Cg) is a strong chemical agent that functions in stimulating the release of inflammatory and proinflammatory mediators, including bradykinin, histamine, tachykinins, reactive oxygen, and nitrogen species. Typical signs of inflammation include edema, hyperalgesia, and erythema, which develop immediately following the treatment of carrageenan. This example evaluated the effect of AAV-mediated gene delivery of Lanadelumab on carrageenan-induced paw edema in mice.
In total eighty young adult (8-9 weeks old) male C57BL/6 mice were used for this study. Paw edema was induced by a single subcutaneous (s.c.) injection of 30 μL of 0.7% or 1% carrageenan solution. […] Paw volume was measured using a digital Plethysmometer prior to carrageenan injection, and at 2, 4, 6, 8, 24 and 48 hours after injection. All animals were sacrificed 48 hours after carrageenan injection. Liver and paw specimens were also collected at the necropsy.
On the technique in general: Carrageenan injected into the paw causes an acute inflammation.

Experiment [2] concerns the target activated human plasma kallikrein (Enzyme Research Laboratories) (human) (UniProt P03952). The experiment is described as follows: cell-based or functional assay.

On to `O=C(O)Cc1ccccc1Nc1c(Cl)cccc1Cl` [diclofenac, Diclofenac], for which the “paw volume after carrageenan injection” value in experiment [1] (0.7% Cg model) is “significant decrease on paw volume was observed only at 4 and 24 hours”; in experiment [1] (1.0% Cg model) it was “significantly decreased the paw volume at 2, 4, 6, 8 and 24 hours”.

B1: Lanadelumab (GenScript), purified IgG (antibody, V domains shown)
VH: EVQLLESGGGLVQPGGSLRLSCAASGFTFSHYIMMWVRQAPGKGLEWVSGIYSSGGITVYADSVKGRFTISRDNSKNTLYLQMNSLRAEDTAVYYCAYRRIGVPRRDEFDIWGQGTMVTVSS
VL: DIQMTQSPSTLSASVGDRVTITCRASQSISSWLAWYQQKPGKAPKLLIYKASTLESGVPSRFSGSGSGTEFTLTISSLQPDDFATYYCQQYNTYWTFGQGTKVEIKR
In experiment [2], B1 showed a suppression of pKal activity (PFR-AMC fluorogenic kinetic enzymatic assay, antibody dose response) of 0.1 nM.

B2: vectorized lanadelumab (AAV8 ApoE.hAAT.L02-derived) in serum, or in total IgG purified from serum, of treated C57BL/6 mice (antibody, V domains shown)
VH: EVQLLESGGGLVQPGGSLRLSCAASGFTFSHYIMMWVRQAPGKGLEWVSGIYSSGGITVYADSVKGRFTISRDNSKNTLYLQMNSLRAEDTAVYYCAYRRIGVPRRDEFDIWGQGTMVTVSS
VL: DIQMTQSPSTLSASVGDRVTITCRASQSISSWLAWYQQKPGKAPKLLIYKASTLESGVPSRFSGSGSGTEFTLTISSLQPDDFATYYCQQYNTYWTFGQGTKVEIKR
With B2, the percent reduction in pKal activity (serum diluted 1:25, day 49 post-administration vs day -7; PFR-AMC assay) in experiment [2] was determined as 50%.
